# Laboratory results reported in patent publication US20070293510A1, “Thiadiazole compounds and use thereof” (Sumitomo Chemical company, Limited ( a Japanese corporation), priority 2002, published 2007).
# Test system: cotton aphids (Aphis gossypii)
# Test: Test Example: cotton aphid control on cucumber plants, spray of diluted formulation
# Assay type: in vivo
# Conditions: formulation per Formulation Example 5 diluted with water to 500 ppm active ingredient; sprayed 20 ml/cup on cucumber plants with about 20 cotton aphids; counted on the 6th day after application
# Method: Each formulation of the present compound (1), (3), (4), (6), (7), (8), (12), (13), (14), (15), (16), (17), (18), (19), (20), (21), (22), (23), (24), (25), (26), (28), (30), (31), (33), (34), (35), (36), (37), (38), (42), (43) and (44) obtained according to the Formulation Example 5 was diluted with water so that the active ingredient concentration came to 500 ppm to prepare a diluting liquid. The seeds of cucumber were planted in polyethylene cups and grown until their first foliage leaves developed, on which about 20 cotton aphids (Aphis gossypii) were made parasitic. After one day, the diluting liquid was sprayed at the rate of 20 ml/cup onto the cucumber plants. On the 6th day after the application, the number of cotton aphids was examined. As a result, the numbers of the living cotton aphids were three or less.
row,Structure (SMILES),numbers of the living cotton aphids
1,"CSc1nsc(OCc2ccc(C(F)(F)F)cc2)n1 [present compound (7), 5-(4-trifluoromethylbenzyloxy)-3-methylthio-1,2,4-thiadiazole]",three or less
2,"CSc1nsc(OC(C)c2ccccc2)n1 (centres unmarked) [present compound (22), 5-(1-phenylethoxy)-3-methylthio-1,2,4-thiadiazole]",three or less
3,"CSc1nsc(OCc2ccccn2)n1 [present compound (19), 5-(2-pyridylmethyloxy)-3-methylthio-1,2,4-thiadiazole]",three or less
4,"CSc1nsc(OCc2c(F)cccc2F)n1 [present compound (16), 5-(2,6-difluorobenzyloxy)-3-methylthio-1,2,4-thiadiazole]",three or less
5,"CSc1nsc(OCc2ccc(Cl)c(Cl)c2)n1 [present compound (18), 5-(3,4-dichlorobenzyloxy)-3-methylthio-1,2,4-thiadiazole]",three or less
6,"C=CCSc1nsc(OCc2ccccc2)n1 [present compound (30), 5-benzyloxy-3-allylthio-1,2,4-thiadiazole]",three or less
7,"CSc1nsc(OCc2ccc(Br)cc2)n1 [present compound (13), 5-(4-bromobenzyloxy)-3-methylthio-1,2,4-thiadiazole]",three or less
8,"CCOCSc1nsc(OCc2ccccc2)n1 [present compound (42), 5-benzylloxy-3-ethoxymethylthio-1,2,4-thiadiazole]",three or less
9,"CSc1nsc(OCc2ccc(OC(F)(F)F)cc2)n1 [present compound (15), 5-(4-trifluoromethoxybenzyloxy)-3-methylthio-1,2,4-thiadiazole]",three or less
10,"CSc1nsc(OCc2cccc(C(F)(F)F)c2)n1 [present compound (6), 5-(3-trifluoromethylbenzyloxy)-3-methylthio-1,2,4-thiadiazole]",three or less
11,"CSc1nsc(OCc2ncccn2)n1 [present compound (36), 5-(2-pyrimidylmethyloxy)-3-methylthio-1,2,4-thiadiazole]",three or less
12,"c1ccc(COCSc2nsc(OCc3ccccc3)n2)cc1 [present compound (43), 5-bezyloxy-3-benzyloxymethylhio-1,2,4-thiadiazole]",three or less
13,"c1ccc(CSc2nsc(OCc3cncnc3)n2)cc1 [present compound (38), 5-(5-pyrimidylmethyloxy)-3-benzylthio-1,2,4-thiadiazole]",three or less
14,"CSc1nsc(OCCCc2ccccc2)n1 [present compound (25), 5-(3-phenylpropyloxy)-3-methylthio-1,2,4-thiadiazole]",three or less
15,"CSc1nsc(OCc2cc(Cl)cc(Cl)c2)n1 [present compound (28), 5-(3,5-dichlorobenzyloxy)-3-methylthio-1,2,4-thiadiazole]",three or less
16,"CSc1nsc(OCc2ccc(I)cc2)n1 [present compound (14), 5-(4-iodobenzyloxy)-3-methylthio-1,2,4-thiadiazole]",three or less

row,Structure (SMILES),numbers of the living cotton aphids
1,"CC(=O)OCSc1nsc(OCc2ccccc2)n1 [present compound (44), 5-bezyloxy-3-acetoxymethylhio-1,2,4-thiadiazole]",three or less
2,"CSc1nsc(OCc2ccccc2)n1 [present compound (1), 5-benzyloxy-3-methylthio-1,2,4-thiadiazole]",three or less
3,"CSc1nsc(OCc2cccc(Cl)c2)n1 [present compound (3), 5-(3-chlorobenzyloxy)-3-methylthio-1,2,4-thiadiazole]",three or less
4,"CSc1nsc(OCCc2ccccn2)n1 [present compound (24), 5-(2-pyridyl-2-ethyloxy)-3-methylthio-1,2,4-thiadiazole]",three or less
5,"CSc1nsc(OCc2ccc(F)cc2)n1 [present compound (12), 5-(4-fluorobenzyloxy)-3-methylthio-1,2,4-thiadiazole]",three or less
6,"COc1ccc(CSc2nsc(OCc3ccccc3)n2)cc1 [present compound (33), 5-benzyloxy-3-(4-methoxybenzyl)thio-1,2,4-thiadiazole]",three or less
7,"CSc1nsc(OCc2cncnc2)n1 [present compound (37), 5-(5-pyrimidylmethyloxy)-3-methylthio-1,2,4-thiadiazole]",three or less
8,"CSc1nsc(OCc2ccc(Cl)cc2)n1 [present compound (4), 5-(4-chlorobenzyloxy)-3-methylthio-1,2,4-thiadiazole]",three or less
9,"c1ccc(COc2nc(SCc3ccccc3)ns2)cc1 [present compound (31), 5-benzyloxy-3-benzylthio-1,2,4-thiadiazole]",three or less
10,"CSc1nsc(OCc2ccc(Cl)nc2)n1 [present compound (21), 5-(6-chloro-3-pyridyl)methyloxy-3-methylthio-1,2,4-thiadiazole]",three or less
11,"CSc1nsc(OCc2cccc(Cl)n2)n1 [present compound (35), 5-(6-chloro-2-pyridylmethyloxy)-3-methylthio-1,2,4-thiadiazole]",three or less
12,"CSc1nsc(OCc2ccc(C)cc2)n1 [present compound (8), 5-(4-methylbenzyloxy)-3-methylthio-1,2,4-thiadiazole]",three or less
13,"CSc1nsc(OCc2cccc([N+](=O)[O-])c2)n1 [present compound (26), 5-(3-nitrobenzyloxy)-3-methylthio-1,2,4-thiadiazole]",three or less
14,"CSc1nsc(OCc2cc(F)cc(F)c2)n1 [present compound (17), 5-(3,5-difluorobenzyloxy)-3-methylthio-1,2,4-thiadiazole]",three or less
15,"CSc1nsc(OCc2ccncc2)n1 [present compound (34), 5-(4-pyridylmethyloxy)-3-methylthio-1,2,4-thiadiazole]",three or less
16,"CSc1nsc(OCCc2ccccc2)n1 [present compound (23), 5-(2-phenylethoxy)-3-methylthio-1,2,4-thiadiazole]",three or less
